Test results published in patent US20190231771A1, “METHODS FOR TREATMENT AND PREVENTION OF OPIOID INDUCED CONSTIPATION USING ORAL COMPOSITIONS OF METHYLNALTREXONE” (Salix Pharmaceuticals, Ltd., priority 2011, published 2019).
Where “and” joins values, the source holds several entries; their conditions need not be identical. Equal values may be shown once. Entries after “also recorded” stand apart in the source; their conditions may differ.

What was measured:
[1] = Study A: single and multiple dose pharmacokinetics after subcutaneous 12 mg methylnaltrexone; format: in vivo, human; conditions: for AUC(0-t) / Cmax: sc, 12 mg; for AUC(0-t): read-out: AUC0-24; for Cmax: read-out: Cmax
Description: Presented herein is a clinical pharmacokinetics study, Study C, as well as Studies A and B. Study A investigated the single and multiple dose pharmacokinetics of methylnaltrexone (MNTX) and its metabolites (M2: methylnaltrexone sulfate; M4: 6α-methylnaltrexol; and M5: 6β-methylnaltrexol) following the subcutaneous administration of 12 mg methylnaltrexone. In Study B, the single and multiple dose pharmacokinetics of methylnaltrexone (MNTX) and its metabolites (M2, M4, and M5) were examined following a 20-minute short intravenous infusion of 24 mg of methylnaltrexone (MNTX).
Pharmacokinetic parameters included Cmax, AUCt, AUCinf, tmax, t1/2, % Re24, accumulation factor (R) as defined below and metabolite/parent drug ratio.
R=Accumulation Factor(based on AUC0-24(ng·h/mL):Day 7 AUC AUC0-24/Day 1 AUC0-24
Metabolite-Parent Drug ratio(based on ng·h/mL)(%)=100*(Metabolite AUC24/MNTX AUC24)
Note: AUCinf was used in place of AUC AUC0-24 for R and Metabolite-Parent Drug ratio computations following IV administration.

[2] = Food effect study: single oral 450 mg MNTX fasted vs high-fat breakfast, 2-period crossover; format: in vivo, human; conditions: for Cmax / half-life / AUC(0-inf) / AUC(0-t) / Tmax: both sexes, human, plasma, oral, 450 mg; for half-life: harmonic mean; for Tmax: median
Description: Presented herein is a single-dose, 2-period crossover study to evaluate the effect of a standard high-fat breakfast on the pharmacokinetics of a single oral dose of 450 mg (3×150 mg tablets) MNTX. The study had 2 arms and 2 dosing periods.
Thirty-two subjects were enrolled into this study. Subjects were randomized at a 1:1 ratio to Arm 1 (fasted then fed) or Arm 2 (fed then fasted). Randomization was stratified by sex. Each subject received a single dose of MNTX 450 mg (administered as 3×150 mg tablets) with a high fat meal (MNTX fed) and after fasting (MNTX fasted). The fasted/fed study periods were separated by 7 days. The sequence of fasted/fed or fed/fasted dosing on Days 1 and 8 was determined by randomization on Day 1.
For the fasted treatment, a single 450 mg (3×150 mg) oral dose of MNTX tablets was administered to subjects following a supervised overnight fast of at least 10 hours. No food was allowed for at least 4 hours post dose.
For the fed treatment, a standard high-fat breakfast was given to the subjects following an overnight fast of at least 10 hours. A single 450 mg (3×150 mg) oral dose of MNTX tablets was administered to subjects 30 minutes after the subject began the meal. No food was allowed for at least 4 hours after drug administration.
Subjects were administered a single oral dose of MNTX tablets (450 mg) on Day 1 and Day 8 after a high fat meal or fasting as follows: (a) MNTX 450 mg (orally as 3×150 mg tablets) administered after a high-fat (high caloric) breakfast, or (b) MNTX 450 mg (orally as 3×150 mg tablets) administered after fasting.
Subjects received a single dose of MNTX 450 mg administered orally as 3×150 mg tablets immediately after a high fat/high calorie meal (MNTX fed) and after fasting (MNTX fasted). A 7-day washout period separated the fasted/fed crossover periods. The sequence of fasted/fed or fed/fasting dosing on Days 1 and 8 was determined by randomization on Day 1. Subjects fasted overnight for a minimum of 10 hours prior to administration of a high fat meal with the single dose of study drug (MNTX fed) or 10 hours prior to administration of the single dose of study drug (MNTX fasted).
Each dose on Day 1 and 8 was administered with 240 mL of room temperature drinking water, and the subjects were instructed to drink all of the water. No food was permitted for 4 hours after drug administration and water was allowed as desired except for 1 hour before and after drug administration. Approximately 4 hours after dosing, a normal meal schedule could be resumed.
A high fat/high caloric meal includes fat content of approximately 50% of total calories in the meal (approximately 800 to 1000 calories total). Subjects receiving the MNTX fed treatment regimen were required to fast for at least 10 hours before breakfast and then to eat the protocol-specified breakfast starting 30 minutes before dosing. The high-fat, high caloric breakfast consisted of the following: • Two slices of toast with ½ pat of butter on each slice. • Two eggs fried in butter. • Two strips of bacon. • Four ounces (113 g) hash brown potatoes. • Eight ounces (240 mL) of whole milk.
Plasma concentrations of MNTX were determined using a validated analytical procedure involving high performance liquid chromatography with tandem quadrupole mass spectrometric detection. Blood samples for determination of MNTX concentrations in plasma were obtained predose (approximately 1 hour prior to dose administration) on Day 1, and at 0.25, 0.5, 1, 2, 4, 6, 8, 10, 12, 16, 24, 36, 48, 72, 96, 120, 144 and 168 hours following each dose administration on Days 1 and 8. Pharmacokinetic parameters that were measured and calculated include the following: […]

[3] = Yuan et al. 2005 J Clin Pharm 45:538-546; cited from earlier work
[4] = cited from earlier work
[5] = human, plasma, 12 mg SC Injection, Day 1, mean
[6] = human, plasma, 12 mg SC Injection, Day 7, mean
[7] = 450 mg Single-Dose Fasted, mean
[8] = orally administered MNTX, other studies

In the case of `C[N@+]1(CC2CC2)CC[C@]23c4c5ccc(O)c4O[C@H]2C(=O)CC[C@@]3(O)[C@H]1C5.[Br-]` [MNTX, (R)—N-(cyclopropylmethyl) noroxymorphone methobromide], the AUCinf ([1]; 12 mg SC Injection, Day 7, mean) was 223.0 ng·h/mL, the “R (SC), accumulation factor” value ([1]; 12 mg SC Injection, AUC0-24 on Day 7/AUC0-24 on Day 1) was 1.05 and the AUC(0-t) [1, 5] was 218 ng·h/mL. For the same compound, the Cmax [1, 5] was 140 ng/mL, the AUC(0-t) [1, 6] was 223 ng·h/mL and the Cmax [1, 6] was 119 ng/mL. For the same compound, the bioavailability ([1]; human, plasma, subcutaneous, 12 mg SC vs 24 mg IV infusion, cross-study, read-out: bioavailability of subcutaneous injection relative to short-term infusion) was 112%, the AUC(0-inf) [1, 5] was 223 ng·h/mL and the Tmax ([1]; human, plasma, 12 mg SC Injection, Day 1, median, read-out: Tmax) was 0.25 h. The half-life ([1]; human, plasma, 12 mg SC Injection, day not given, harmonic mean) was 5.33 h, the CL/F [2, 7] was 1608644 mL/h and the λz [2, 7] was 0.04 h⁻¹ and 0.0403 h⁻¹. The CL/F ([2]; 450 mg Single-Dose Fed, mean) was 2961340 mL/h, the λz ([2]; 450 mg Single-Dose Fed, mean) was 0.04 h⁻¹ and 0.0413 h⁻¹ and the “AUC0-∞ Geometric Mean Ratio, fasted divided by fed” value ([2]; 450 mg single dose) was 198.17%. The “AUClast Geometric Mean Ratio, fasted divided by fed” value ([2]; 450 mg single dose) was 199.28%, the “AUClast and AUC0-∞ higher in fasted as compared with fed subjects” value ([2]; 450 mg single dose) was “approximately 2 fold” and the “Cmax Geometric Mean Ratio, fasted divided by fed” value ([2]; 450 mg single dose) was 273.6% and 273.62%. The “arithmetic mean Cmax in fed subjects as share of that in fasted subjects” value ([2]; 450 mg single dose) was roughly 28%, the “decrease of systemic exposure by food (as determined by AUC and Cmax)” value ([2]; 450 mg single dose) was “approximately half to three quarters” and the “systemic exposure (AUClast and AUC0-∞) lower in fed than in fasted subjects” value ([2]; 450 mg single dose) was “approximately 50%”. For the same compound, the “bioequivalence under fed and fasted conditions (80% to 125% range)” value ([2]; 450 mg single dose, Cmax, AUClast, AUC0-∞) was “nonbioequivalence; also recorded: non-bioequivalent; also recorded: not bioequivalent”, the “deaths, SAEs, TEAEs resulting in study discontinuation” value ([2]; 450 mg single doses) was “no deaths, SAEs, or TEAEs resulting in study discontinuation” and the “effect on cardiac safety parameters or vital signs” value ([2]; 450 mg single doses) was “No significant effect”. For the same compound, the “intensity of TEAEs” value ([2]; 450 mg single doses) was “mild”, the “relation of TEAEs to MNTX (investigator)” value ([2]; 450 mg single doses) was “No TEAEs were considered by the investigator to be related to MNTX” and the “subjects with headache (most frequent TEAE)” value ([2]; 450 mg single doses, 32 subjects) was 6%. The “subjects experiencing at least 1 TEAE” value ([2]; 450 mg single doses, 32 subjects, whole study) was 16%, the Cmax ([2]; 450 mg Single-Dose Fasted, arithmetic mean, read-out: Cmax) was 45.5 ng/mL and the half-life ([2]; 450 mg Single-Dose Fasted) was roughly 17 h. It also gave an AUC(0-inf) ([2]; 450 mg Single-Dose Fasted, mean, read-out: AUC0-∞) of 364 ng·h/mL, an AUC(0-t) ([2]; 450 mg Single-Dose Fasted, mean, read-out: AUClast) of 361 ng·h/mL and a Tmax ([2]; 450 mg Single-Dose Fasted) of 2 h. It also gave a Cmax ([2]; 450 mg Single-Dose Fed, arithmetic mean, read-out: Cmax) of 12.9 ng/mL, a half-life ([2]; 450 mg Single-Dose Fed) of roughly 17 h and an AUC(0-inf) ([2]; 450 mg Single-Dose Fed, mean, read-out: AUC0-∞) of 169 ng·h/mL. For the same compound, the AUC(0-t) ([2]; 450 mg Single-Dose Fed, mean, read-out: AUClast) was 166 ng·h/mL, the Tmax ([2]; 450 mg Single-Dose Fed) was 4 h and the AUC(0-inf) ([2]; 450 mg single dose, Fasted, read-out: AUC0-∞, Geometric Least Squares Mean) was 317 ng·h/mL. It also gave an AUC(0-t) ([2]; 450 mg single dose, Fasted, read-out: AUClast, Geometric Least Squares Mean) of 314 ng·h/mL, a Cmax ([2]; 450 mg single dose, Fasted, read-out: Cmax, Geometric Least Squares Mean) of 33.4 ng/mL and an AUC(0-inf) ([2]; 450 mg single dose, Fed, read-out: AUC0-∞, Geometric Least Squares Mean) of 160 ng·h/mL. For the same compound, the AUC(0-t) ([2]; 450 mg single dose, Fed, read-out: AUClast, Geometric Least Squares Mean) was 158 ng·h/mL, the Cmax ([2]; 450 mg single dose, Fed, read-out: Cmax, Geometric Least Squares Mean) was 12.2 ng/mL and the “subjects with TEAEs” value ([2]; fasted dosing period) was “Four”. For the same compound, the “subjects with TEAEs” value ([2]; fed dosing period) was 3 subjects, the tolerability ([2]; single dose of MNTX 450 mg) was “well tolerated” and the “dose recovered in urine following IV administration” value [3] was 31.5%-49.6%. The “bioavailability (in words)” value [4, 8] was “low bioavailability”, the “plasma protein binding (in words)” value [4, 8] was “low plasma protein binding” and the “tissue distribution (in words)” value [4, 8] was “limited tissue distribution outside the GI tract”. The “increase of systemic absorption by fasting” value ([4]; prior study) was “approximately 25%”.
